Reference: ChEMBL document CHEMBL3526044, “Effect of albumin on human liver microsomal and recombinant CYP1A2 activities: impact on in vitro-in vivo extrapolation of drug clearance” (Drug Metab Dispos, 2012)
Values belong to the molecule of their own block, whether it stands above or below them.

Columns and labels:
Liver microsome [1] = experiment: Drug metabolism in human liver microsomes assessed as retention time treated with 25 to 8000 uM lidocaine incubated for 5 mins prior to NADPH addition measured after 25 mins by HPLC analysis; assay type: ADME
Cytochrome P450 1A2 [2] = target: T1, Cytochrome P450 1A2 (Rattus norvegicus, UniProt P04799); experiment: Competitive inhibition of rat recombinant CYP1A2 expressed in Escherichia coli assessed as inhibition of PHEN O-deethylation by dixon plot analysis; assay type: ADME
T1 sequence (P04799 whole entry): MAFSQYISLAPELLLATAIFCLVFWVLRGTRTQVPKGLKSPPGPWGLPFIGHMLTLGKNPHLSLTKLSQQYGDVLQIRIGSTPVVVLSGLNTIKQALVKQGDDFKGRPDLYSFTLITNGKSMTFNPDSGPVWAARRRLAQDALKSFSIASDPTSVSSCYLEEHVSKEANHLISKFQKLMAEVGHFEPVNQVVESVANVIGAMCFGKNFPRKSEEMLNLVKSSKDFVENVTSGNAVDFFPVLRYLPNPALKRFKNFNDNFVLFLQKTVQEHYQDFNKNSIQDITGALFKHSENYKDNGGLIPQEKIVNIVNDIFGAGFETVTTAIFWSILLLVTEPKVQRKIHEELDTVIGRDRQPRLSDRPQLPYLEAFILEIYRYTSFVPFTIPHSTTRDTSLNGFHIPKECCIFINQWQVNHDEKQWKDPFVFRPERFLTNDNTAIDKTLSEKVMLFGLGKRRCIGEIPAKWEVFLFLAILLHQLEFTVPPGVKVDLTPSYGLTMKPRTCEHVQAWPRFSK

[3] = (§1) Drug metabolism in human liver microsomes assessed as enzyme-mediated O-deethylation incubated for 5 mins prior to NADPH addition measured after 25 mins by Michaelis-Menten equation analysis in presence of BSA; assay type: ADME; details: liver microsomes
Liver microsome [4] = experiment: as §1; assay type: ADME; details: microsomes, 25 min
Cytochrome P450 1A2 [5] = target: T1, Cytochrome P450 1A2; experiment: Binding affinity to rat recombinant CYP1A2 expressed in Escherichia coli assessed as fraction unbound by equilibrium dialysis method
Cytochrome P450 1A2 [6] = target: T1, Cytochrome P450 1A2; experiment: Binding affinity to rat recombinant CYP1A2 expressed in Escherichia coli assessed as fraction unbound by equilibrium dialysis method in presence of BSA; assay type: ADME
[7] = Fraction unbound in human liver microsomes by equilibrium dialysis method
[8] = Fraction unbound in human liver microsomes by equilibrium dialysis method in presence of BSA
[9] = (§2) Drug metabolism in human liver microsomes assessed as enzyme-mediated O-deethylation incubated for 5 mins prior to NADPH addition measured after 25 mins by Michaelis-Menten equation analysis; assay type: ADME; details: liver microsomes
Liver microsome [10] = experiment: as §2; assay type: ADME; details: microsomes, 25 min
Homo sapiens [11] = experiment: Intrinsic clearance in healthy human at 250 mg, iv; assay type: ADME, organism-based; details: in vivo
Homo sapiens [12] = experiment: Hepatic clearance in healthy human at 250 mg, iv; assay type: ADME, organism-based, Liver; details: in vivo
Liver microsome [13] = experiment: Drug metabolism in human liver microsomes assessed as retention time at 2 to 2000 uM incubated for 5 mins prior to NADPH addition measured after 25 mins by HPLC analysis; assay type: ADME
[14] = Stability of the compound assessed as retention time by HPLC analysis
[15] = substrate: CCOc1ccc(NC(C)=O)cc1; experiment: Activity of rat recombinant CYP1A2 expressed in Escherichia coli assessed as enzyme-mediated O-deethylation after 7.5 mins by Michaelis-Menten equation analysis in presence of BSA; assay type: ADME
[16] = substrate: CCOc1ccc(NC(C)=O)cc1; experiment: Activity of rat recombinant CYP1A2 expressed in Escherichia coli assessed as enzyme-mediated O-deethylation after 7.5 mins by Michaelis-Menten equation analysis; assay type: ADME

Molecule: CCCCC/C=C\C/C=C\C/C=C\C/C=C\CCCC(=O)O
Ki (Cytochrome P450 1A2 [2]): 4.7 µM

Molecule: CCCCCCCC/C=C\CCCCCCCC(=O)[O-].[Na+]
Ki (Cytochrome P450 1A2 [2]): 16.7 µM

B1: Cytochrome P450 1A2 (Rattus norvegicus) (protein)
chain: T1 sequence (P04799 whole entry)
Km [15]: 3.8 µM | Vmax [15]: 4.65e-05 µmol/min | Km [16]: 13.6 µM | Vmax [16]: 3.97e-05 µmol/min

More lines, now with the values ahead:

Retention_time (Liver microsome [1]): 4.4 min
Molecule: CCNCC(=O)Nc1c(C)cccc1C

Km at 25 min ([3]; read-out: KmH): 6.6 µM | Km at 25 min ([3]; read-out: KmL): 881 µM | VmaxH (Liver microsome [4]): 772 pmol/min | VmaxL (Liver microsome [4]): 820 pmol/min | fraction unbound (Cytochrome P450 1A2 [5]): 0.98 | fraction unbound (Cytochrome P450 1A2 [6]): 0.8 | fraction unbound [7]: 0.98 | fraction unbound [8]: 0.78 | Km at 25 min ([9]; read-out: KmH): 27.8 µM | Km at 25 min ([9]; read-out: KmL): 867 µM | VmaxH (Liver microsome [10]): 811 pmol/min | VmaxL (Liver microsome [10]): 523 pmol/min | CL (Homo sapiens [11]): 933 L/h | CLH (Homo sapiens [12]): 71 L/h | Retention_time (Liver microsome [13]): 13 min | Retention_time [14]: 3.6 min
Molecule: CCOc1ccc(NC(C)=O)cc1 [PHENACETIN]

Ki (Cytochrome P450 1A2 [2]): 13.6 µM
Molecule: CCCCC/C=C\C/C=C\CCCCCCCC(=O)O [SODIUM LINOLATE]
